# Test results: patent US20090018111A1, “Novel Antimicrobial Medicament” (priority 2004, published 2009)
# Where two headings read alike, the source gives them in different places.
# What was measured:
# Assay in all cases: Sensitivity test (agar dilution)
# P. vurgalis OX-19 = assay type: cell-based, Proteus vulgaris; conditions: Proteus vulgaris, P. vurgalis OX-19
# Outline: (§1)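 Each strain, cultured overnight at 37° C and adjusted to about 10^6 CFU/ml in BSG, was spotted (about 5 μl) on Mueller Hinton agar with twofold serial drug concentrations. Inhibition defines the MIC.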
# S. marcescens GN6473 = assay type: cell-based, Serratia marcescens; conditions: Serratia marcescens
# Outline: as §1
# S. marcescens X 100 = assay type: cell-based, Serratia marcescens
# Outline: as §1
# E. cloacae GN7471 = assay type: cell-based, Enterobacter cloacae; conditions: Enterobacter cloacae
# Outline: as §1
smiles,measurement,setting,value
"C[C@H]1C=C(c2csc(SC3=C(C(=O)O)N4C(=O)[C@H]([C@@H](C)O)[C@H]4[C@H]3C)n2)CN1 [SM, (4R,5S,6S)-6-[(1R)-1-Hydroxyethyl]-4-methyl-3-({4-[(5S)-5-methyl-2,5-dihydro-1H-pyrrol-3-yl]-1,3-thiazol-2-yl}sulfanyl)-7-oxo-1-azabicyclo[3.2.0]hept-2-ene-2-carboxylic acid]",MIC,"P. vurgalis OX-19; OX19, read-out: MIC concomitant, Concomitant (CPFX:SM = 1:1)",0.008 µg/mL
same,MIC,"P. vurgalis OX-19; OX19, read-out: MIC concomitant, Concomitant (DRPM:SM = 1:1)",0.031 µg/mL
same,MIC,"P. vurgalis OX-19; OX19, read-out: MIC concomitant, Concomitant (PAPM:SM = 1:1)",0.063 µg/mL
same,MIC,"P. vurgalis OX-19; OX19, read-out: MIC concomitant, Concomitant (PIPC:SM = 1:1)",≤ 0.002 µg/mL
same,MIC,"S. marcescens GN6473; GN6473, Concomitant (AZT:SM = 1:1), S. marcescens GN6473, read-out: MIC concomitant",0.25 µg/mL
same,MIC,"S. marcescens GN6473; GN6473, Concomitant (BIPM:SM = 1:1), S. marcescens GN6473, read-out: MIC concomitant",0.125 µg/mL
same,MIC,"S. marcescens GN6473; GN6473, Concomitant (CAZ:SM = 1:1), S. marcescens GN6473, read-out: MIC concomitant",0.5 µg/mL
same,MIC,"S. marcescens GN6473; GN6473, Concomitant (CPFX:SM = 1:1), S. marcescens GN6473, read-out: MIC concomitant",1 µg/mL
same,MIC,"S. marcescens GN6473; GN6473, Concomitant (DRPM:SM = 1:1), S. marcescens GN6473, read-out: MIC concomitant",0.063 µg/mL
same,MIC,"S. marcescens GN6473; GN6473, Concomitant (IPM:SM = 1:1), read-out: MIC",0.25 µg/mL
same,MIC,"S. marcescens GN6473; GN6473, Concomitant (MEPM:SM = 1:1), read-out: MIC",0.031 µg/mL
same,MIC,"S. marcescens GN6473; GN6473, Concomitant (MEPM:SM = 1:2), read-out: MIC",0.063 µg/mL
same,MIC,"S. marcescens GN6473; GN6473, Concomitant (MEPM:SM = 1:4), read-out: MIC",0.125 µg/mL
same,MIC,"S. marcescens GN6473; GN6473, Concomitant (PAPM:SM = 1:1), S. marcescens GN6473, read-out: MIC concomitant",0.25 µg/mL
same,MIC,"S. marcescens GN6473; GN6473, Concomitant (PIPC:SM = 1:1), S. marcescens GN6473, read-out: MIC concomitant",4 µg/mL
same,MIC,"S. marcescens GN6473; GN6473, Concomitant drug (MEPM:SM = 2:1), read-out: MIC",0.016 µg/mL
same,MIC,"S. marcescens GN6473; GN6473, alone, read-out: MIC",4 µg/mL
same,MIC,"S. marcescens GN6473; GN6473, drug alone, S. marcescens GN6473, read-out: MIC alone",4 µg/mL
same,MIC,"S. marcescens X 100; Serratia marcescens, X100, Concomitant (AZT:SM = 1:1), S. marcescens X 100, read-out: MIC concomitant",0.031 µg/mL
same,MIC,"S. marcescens X 100; Serratia marcescens, X100, Concomitant (BIPM:SM = 1:1), S. marcescens X 100, read-out: MIC concomitant",0.063 µg/mL
same,MIC,"S. marcescens X 100; Serratia marcescens, X100, Concomitant (CAZ:SM = 1:1), S. marcescens X 100, read-out: MIC concomitant",0.125 µg/mL
same,MIC,"S. marcescens X 100; Serratia marcescens, X100, Concomitant (CPFX:SM = 1:1), S. marcescens X 100, read-out: MIC concomitant",0.063 µg/mL
same,MIC,"S. marcescens X 100; Serratia marcescens, X100, Concomitant (DRPM:SM = 1:1), S. marcescens X 100, read-out: MIC concomitant",0.031 µg/mL
same,MIC,"S. marcescens X 100; Serratia marcescens, X100, Concomitant (IPM:SM = 1:1), read-out: MIC",0.125 µg/mL
same,MIC,"S. marcescens X 100; Serratia marcescens, X100, Concomitant (MEPM:SM = 1:1), read-out: MIC",≤ 0.016 µg/mL
same,MIC,"S. marcescens X 100; Serratia marcescens, X100, Concomitant (MEPM:SM = 1:2), read-out: MIC",≤ 0.031 µg/mL
same,MIC,"S. marcescens X 100; Serratia marcescens, X100, Concomitant (MEPM:SM = 1:4), read-out: MIC",≤ 0.063 µg/mL
same,MIC,"S. marcescens X 100; Serratia marcescens, X100, Concomitant (PAPM:SM = 1:1), S. marcescens X 100, read-out: MIC concomitant",0.125 µg/mL
same,MIC,"S. marcescens X 100; Serratia marcescens, X100, Concomitant (PIPC:SM = 1:1), S. marcescens X 100, read-out: MIC concomitant",0.25 µg/mL
same,MIC,"S. marcescens X 100; Serratia marcescens, X100, Concomitant drug (MEPM:SM = 2:1), read-out: MIC",0.016 µg/mL
same,MIC,"S. marcescens X 100; Serratia marcescens, X100, alone, read-out: MIC",0.5 µg/mL
same,MIC,"S. marcescens X 100; Serratia marcescens, X100, drug alone, S. marcescens X 100, read-out: MIC alone",1 µg/mL
same,MIC,S. marcescens X 100; alone,1 µg/mL
same,MIC,"E. cloacae GN7471; GN7471, Concomitant (AZT:SM = 1:1), E. cloacae GN7471, read-out: MIC concomitant",4 µg/mL
same,MIC,"E. cloacae GN7471; GN7471, Concomitant (BIPM:SM = 1:1), E. cloacae GN7471, read-out: MIC concomitant",0.063 µg/mL
same,MIC,"E. cloacae GN7471; GN7471, Concomitant (CAZ:SM = 1:1), E. cloacae GN7471, read-out: MIC concomitant",8 µg/mL
same,MIC,"E. cloacae GN7471; GN7471, Concomitant (CPFX:SM = 1:1), E. cloacae GN7471, read-out: MIC concomitant",0.016 µg/mL
same,MIC,"E. cloacae GN7471; GN7471, Concomitant (DRPM:SM = 1:1), E. cloacae GN7471, read-out: MIC concomitant",0.031 µg/mL
same,MIC,"E. cloacae GN7471; GN7471, Concomitant (IPM:SM = 1:1), read-out: MIC",0.125 µg/mL
same,MIC,"E. cloacae GN7471; GN7471, Concomitant (MEPM:SM = 1:1), read-out: MIC",0.031 µg/mL
same,MIC,"E. cloacae GN7471; GN7471, Concomitant (MEPM:SM = 1:2), read-out: MIC",0.063 µg/mL
same,MIC,"E. cloacae GN7471; GN7471, Concomitant (MEPM:SM = 1:4), read-out: MIC",0.125 µg/mL
same,MIC,"E. cloacae GN7471; GN7471, Concomitant (PAPM:SM = 1:1), E. cloacae GN7471, read-out: MIC concomitant",0.125 µg/mL
same,MIC,"E. cloacae GN7471; GN7471, Concomitant (PIPC:SM = 1:1), E. cloacae GN7471, read-out: MIC concomitant",8 µg/mL
same,MIC,"E. cloacae GN7471; GN7471, Concomitant drug (MEPM:SM = 2:1), read-out: MIC",0.016 µg/mL
same,MIC,"E. cloacae GN7471; GN7471, alone, read-out: MIC",8 µg/mL
same,MIC,"E. cloacae GN7471; GN7471, drug alone, E. cloacae GN7471, read-out: MIC alone",8 µg/mL
